Measurements as given in ChEMBL document CHEMBL1201862, “PubChem BioAssay data set” (2004).
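Method: 48-hour compound exposure of cells in 96-well plates, five concentrations, linear interpolation of endpoints. GI50 marks 50% less growth.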 Calls of active or inactive are those of the source. Rule as the data show it: active = GI50 up to about 1.1 µM and inactive = higher.

Assays:
Assay in all cases: NCI anticancer screen, dose series, 48 h
M14 = test system: M14
RPMI-8226 = test system: RPMI-8226
U-251 = test system: U-251
SK-MEL-5 = test system: SK-MEL-5
HT-29 = test system: HT-29
SF-539 = test system: SF-539
HCT-15 = test system: HCT-15
SNB-19 = test system: SNB-19
EKVX = test system: EKVX
Hs-578T = test system: Hs-578T
UACC-257 = test system: UACC-257
SR = test system: SR
NCI-H522 = test system: NCI-H522
NCI-H460 = test system: NCI-H460
MDA-N = test system: MDA-N
OVCAR-4 = test system: OVCAR-4
MOLT-4 = test system: MOLT-4
DU-145 = test system: DU-145
A549 = test system: A549
LOX IMVI = test system: LOX IMVI

Row | Structure (SMILES) | GI50 (M14) | GI50 (RPMI-8226) | GI50 (U-251) | GI50 (SK-MEL-5) | GI50 (HT-29) | GI50 (SF-539) | GI50 (HCT-15) [µM] | GI50 (SNB-19) | GI50 (EKVX) | GI50 (Hs-578T) | GI50 (UACC-257) | GI50 (SR) | GI50 (NCI-H522) | GI50 (NCI-H460) | GI50 (MDA-N) | GI50 (OVCAR-4) | GI50 (MOLT-4) | GI50 (DU-145) | GI50 (A549) | GI50 (LOX IMVI)
1 | CCCCc1c2c(nc3c1CCCC3O)CCCC2 (stereo not given) | > 100 µM (inactive) | > 100 µM (inactive) | > 100 µM (inactive) | > 100 µM (inactive) | 85.3 µM (inactive) | > 100 µM (inactive) | > 100 | > 100 µM (inactive) | 73.6 µM (inactive) | > 100 µM (inactive) | > 100 µM (inactive) | 5.11 µM (inactive) | > 100 µM (inactive) | > 100 µM (inactive) | > 100 µM (inactive) | > 100 µM (inactive) | 71 µM (inactive) | > 100 µM (inactive) | > 100 µM (inactive) | –
2 | O=C(NC1=C(Cl)C(=O)c2ccccc2C1=O)c1ccc(F)cc1 | 2.6 µM (inactive) | 2.51 µM (inactive) | 1.85 µM (inactive) | – | 3.49 µM (inactive) | 4.4 µM (inactive) | 0.535 | 5.18 µM (inactive) | 11.8 µM (inactive) | 8.91 µM (inactive) | 1.98 µM (inactive) | 3.66 µM (inactive) | 0.456 µM (active) | 2.87 µM (inactive) | 3.33 µM (inactive) | 6.67 µM (inactive) | 2.24 µM (inactive) | 4.68 µM (inactive) | 5.37 µM (inactive) | –
3 | CC(C)(C)OC(=O)N1NC(c2ccccc2)CC1c1ccccc1 (stereo not given) | 16.3 µM (inactive) | 35.6 µM (inactive) | – | 19.6 µM (inactive) | 26.7 µM (inactive) | 42.5 µM (inactive) | 22.1 | – | 33.7 µM (inactive) | 36.6 µM (inactive) | 43.7 µM (inactive) | 27.2 µM (inactive) | 31.6 µM (inactive) | 30.4 µM (inactive) | 42.6 µM (inactive) | – | 24.8 µM (inactive) | 27.2 µM (inactive) | 13.8 µM (inactive) | –
4 | CC(C)(C)c1cc2c(O)c(c1)Cc1cc(C(C)(C)C)cc(c1O)Cc1cc(C(C)(C)C)cc(c1O)Cc1cc(C(C)(C)C)cc(c1O)Cc1cc(C(C)(C)C)cc(c1O)Cc1cc(C(C)(C)C)cc(c1O)Cc1cc(C(C)(C)C)cc(c1O)Cc1cc(C(C)(C)C)cc(c1O)C2 | > 50 µM (inactive) | > 50 µM (inactive) | > 50 µM (inactive) | > 50 µM (inactive) | > 50 µM (inactive) | > 50 µM (inactive) | > 50 | > 50 µM (inactive) | > 50 µM (inactive) | > 50 µM (inactive) | > 50 µM (inactive) | > 50 µM (inactive) | > 50 µM (inactive) | > 50 µM (inactive) | > 50 µM (inactive) | > 50 µM (inactive) | > 50 µM (inactive) | > 50 µM (inactive) | > 50 µM (inactive) | –
5 | COC(=O)CCC1(C)C2CCC1/C(=N/O)C2 (stereo not given) | > 100 µM (inactive) | > 100 µM (inactive) | > 100 µM (inactive) | > 100 µM (inactive) | > 100 µM (inactive) | – | > 100 | > 100 µM (inactive) | > 100 µM (inactive) | > 100 µM (inactive) | > 100 µM (inactive) | > 100 µM (inactive) | > 100 µM (inactive) | – | > 100 µM (inactive) | > 100 µM (inactive) | > 100 µM (inactive) | > 100 µM (inactive) | > 100 µM (inactive) | –
6 | CC[C@@H]1CC[C@@H]2[C@H](CC[C@]3(C)[C@@H](OS(=O)(=O)c4ccc(C)cc4)CC[C@@H]23)[C@H]1COS(=O)(=O)c1ccc(C)cc1 | > 100 µM (inactive) | > 100 µM (inactive) | > 100 µM (inactive) | > 100 µM (inactive) | > 100 µM (inactive) | > 100 µM (inactive) | > 100 | > 100 µM (inactive) | > 100 µM (inactive) | > 100 µM (inactive) | > 100 µM (inactive) | > 100 µM (inactive) | – | > 100 µM (inactive) | > 100 µM (inactive) | > 100 µM (inactive) | > 100 µM (inactive) | > 100 µM (inactive) | > 100 µM (inactive) | > 100 µM (inactive)
7 | O=c1[nH]c(=O)n(C2CC(O)C(CO)O2)c2nc3ccc4cc5ccccc5cc4c3nc12 (stereo not given) | > 100 µM (inactive) | > 100 µM (inactive) | > 100 µM (inactive) | > 100 µM (inactive) | > 100 µM (inactive) | > 100 µM (inactive) | > 100 | > 100 µM (inactive) | > 100 µM (inactive) | > 100 µM (inactive) | > 100 µM (inactive) | 69.5 µM (inactive) | > 100 µM (inactive) | – | > 100 µM (inactive) | 80.7 µM (inactive) | > 100 µM (inactive) | > 100 µM (inactive) | > 100 µM (inactive) | 14.8 µM (inactive)
8 | O=C(O)CCNc1[nH]cnc2ncnc1-2 | > 100 µM (inactive) | > 100 µM (inactive) | > 100 µM (inactive) | > 100 µM (inactive) | > 100 µM (inactive) | – | > 100 | > 100 µM (inactive) | > 100 µM (inactive) | > 100 µM (inactive) | > 100 µM (inactive) | > 100 µM (inactive) | > 100 µM (inactive) | > 100 µM (inactive) | > 100 µM (inactive) | > 100 µM (inactive) | – | > 100 µM (inactive) | > 100 µM (inactive) | > 100 µM (inactive)
